From patent publication US11634425B2, “Pharmaceutical compounds” (priority 2019, dated 2023)
Where two headings read alike, the source gives them in different places.

How the values were obtained:
[1] = Cell cytotoxicity (CC50); assay type: cell-based; conditions: human; mean of at least two experiments
Summary of the method: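 Values are means of ≥2 independent runs, rounded to whole units, from 4-parameter variable-slope curve fits. Toxicity measured in Hep-G2 cells run alongside RSV plaque-reduction assays.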

[2] = in vitro; assay type: in vitro ADME; conditions: microsomes, pH 7.4, 1 μM compound, 0.5 mg/mL protein, read-out: Liver Microsomal Stability t1/2
Experimental: Compounds were subjected to the following assays to investigate liver microsomal stability and hepatocyte stability.
Microsomal Incubation: Experimental Procedure
Pooled liver microsomes were purchased from a reputable commercial supplier and stored at −80° C. prior to use. Microsomes (final protein concentration 0.5 mg/mL), 0.1 M phosphate buffer pH 7.4 and test compound (final substrate concentration 1 μM; final DMSO concentration 0.25%) were pre-incubated at 37° C. prior to the addition of NADPH (final concentration 1 mM) to initiate the reaction. The final incubation volume was 50 μL. A control incubation was included for each compound tested where 0.1 M phosphate buffer pH 7.4 was added instead of NADPH (minus NADPH). Two control compounds were included with each species. All incubations were performed singularly for each test compound. Each compound was incubated for 0, 5, 15, 30 and 45 min. The control (minus NADPH) was incubated for 45 min only. The reactions were stopped by transferring incubate into acetonitrile at the appropriate time points, in a 1:3 ratio. The termination plates are centrifuged at 3,000 rpm for 20 min at 4° C. to precipitate the protein. Following protein precipitation, the sample supernatants were combined in cassettes of up to 4 compounds, internal standard added, and samples analysed by LC-MS/MS. From a plot of ln peak area ratio (compound peak area/internal standard peak area) against time, the gradient of the line was determined. Subsequently, half-life (t1/2) and intrinsic clearance (CLint) were calculated.

[3] = test system: RSV A2; experiment: RSV plaque reduction assay; assay type: cell-based, respiratory syncytial virus (RSV); conditions: human respiratory syncytial virus, HepG2, Hep-G2 cells, mean of at least two experiments
Summary of the method: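 RSV A2 at 100 PFU/well was premixed with eight compound dilutions and added to confluent Hep-G2 monolayers for 2 h at 37 °C. Cells were then kept 2 days under a DMEM/2% FBS/0.8% CMC overlay containing compound. Immunostained plaques were counted relative to virus controls, and EC50 came from 4-parameter fits, averaged over at least two experiments.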

Row | Structure (SMILES) | CC50 [1] [nM] | half-life at 1 μM ([2]; dog) [h] | half-life at 1 μM ([2]; human) [h] | half-life at 1 μM ([2]; rat) [h] | EC50 [3] [nM]
1 | Cc1cnc(F)c(-c2nn3cccnc3c2C(=O)N[C@H]2N=C(c3ccccc3)c3cccc(F)c3NC2=O)c1 [Example 32, 2-(2-Fluoro-5-methylpyridin-3-yl)-N-[(3S)-9-fluoro-2-oxo-5-phenyl-1,3-dihydro-1,4-benzodiazepin-3-yl]pyrazolo[1,5-a]pyrimidine-3-carboxamide] | > 25000 | 3.78 | 5.58 | 1.28 | 86
2 | Cc1ccn2nc(-c3ccc(F)cc3F)c(C(=O)N[C@H]3N=C(c4ccccc4)c4cccc(F)c4NC3=O)c2n1 [Example 36, 2-(2,4-Difluorophenyl)-N-[(3S)-9-fluoro-2-oxo-5-phenyl-1,3-dihydro-1,4-benzodiazepin-3-yl]-5-methylpyrazolo[1,5-a]pyrimidine-3-carboxamide] | > 25000 | 3.7 | > 2.33 | 0.557 | 27
3 | O=C(N[C@H]1N=C(c2ccccc2)c2cccc(F)c2NC1=O)c1c(-c2ccccc2)nc2cccnn12 [Example 107, N-[(3S)-9-fluoro-2-oxo-5-phenyl-1,3-dihydro-1,4-benzodiazepin-3-yl]-2-phenylimidazo[1,2-b]pyridazine-3-carboxamide] | > 25000 | 3.12 | 4.97 | 1.46 | 37
4 | COc1ccc2nc(-c3ccccc3F)c(C(=O)N[C@H]3N=C(c4ccccc4)c4cccc(F)c4NC3=O)n2n1 [Example 115, N-[(3S)-9-fluoro-2-oxo-5-phenyl-1,3-dihydro-1,4-benzodiazepin-3-yl]-2-(2-fluorophenyl)-6-methoxyimidazo[1,2-b]pyridazine-3-carboxamide] | > 25000 | 7.78 | 2.5 | 2.42 | 34
5 | O=C(N[C@H]1N=C(c2ccccc2)c2ccccc2NC1=O)c1c(-c2cncc(Cl)c2)nn2cccnc12 [Example 27, 2-(5-Chloropyridin-3-yl)-N-[(3S)-2-oxo-5-phenyl-1,3-dihydro-1,4-benzodiazepin-3-yl]pyrazolo[1,5-a]pyrimidine-3-carboxamide] | > 25000 | 0.997 | 2.03 | 8.75 | 61
6 | O=C(N[C@H]1N=C(c2ccccc2)c2ccccc2NC1=O)c1c(-c2ccccc2F)nn2ccc(N3CCOCC3)nc12 [Example 39, 2-(2-Fluorophenyl)-5-(morpholin-4-yl)-N-[(3S)-2-oxo-5-phenyl-2,3-dihydro-1H-1,4-benzodiazepin-3-yl]pyrazolo[1,5-a]pyrimidine-3-carboxamide] | > 25000 | 0.255 | 1.33 | 0.538 | 62
7 | O=C(N[C@H]1N=C(c2ccccc2)c2ccccc2NC1=O)c1c(-c2ccccc2)nn2cccnc12 [Example 12, N-[(3S)-2-oxo-5-phenyl-1,3-dihydro-1,4-benzodiazepin-3-yl]-2-phenylpyrazolo[1,5-a]pyrimidine-3-carboxamide] | > 25000 | 3.87 | 4.4 | > 2.33 | 153
8 | CNc1ccc(-c2nn3cccnc3c2C(=O)N[C@H]2N=C(c3ccccc3)c3ccccc3NC2=O)cc1 [Example 1, 2-[4-(Methylamino)phenyl]-N-[(3S)-2-oxo-5-phenyl-1,3-dihydro-1,4-benzodiazepin-3-yl]pyrazolo[1,5-a]pyrimidine-3-carboxamide] | > 25000 | 1.25 | 1.22 | 0.678 | 35
9 | Cc1ccc2nc(-c3cccnc3)c(C(=O)N[C@H]3N=C(c4ccccc4)c4cccc(F)c4NC3=O)n2n1 [Example 96, N-[(3S)-9-fluoro-2-oxo-5-phenyl-1,3-dihydro-1,4-benzodiazepin-3-yl]-6-methyl-2-pyridin-3-ylimidazo[1,2-b]pyridazine-3-carboxamide] | > 25000 | 3.78 | 42.8 | 0.468 | 91
10 | CCNc1ccc2nc(-c3ccccc3F)c(C(=O)N[C@H]3N=C(c4ccccc4)c4cccc(F)c4NC3=O)n2n1 [Example 106, 6-(Ethylamino)-N-[(3S)-9-fluoro-2-oxo-5-phenyl-1,3-dihydro-1,4-benzodiazepin-3-yl]-2-(2-fluorophenyl)imidazo[1,2-b]pyridazine-3-carboxamide] | > 25000 | 4.8 | 0.792 | 1.46 | 66
11 | CC(C)Nc1ccc(-c2nn3cccnc3c2C(=O)N[C@H]2N=C(c3ccccc3)c3cccc(F)c3NC2=O)c(F)n1 [Example 70, N-[(3S)-9-Fluoro-2-oxo-5-phenyl-1,3-dihydro-1,4-benzodiazepin-3-yl]-2-[2-fluoro-6-(propan-2-ylamino)pyridin-3-yl]pyrazolo[1,5-a]pyrimidine-3-carboxamide] | > 25000 | 0.525 | 3.45 | 1.65 | 23
12 | COc1ccc(-c2nn3cccnc3c2C(=O)N[C@H]2N=C(c3ccccc3)c3ccccc3NC2=O)c(F)c1 [Example 14, 2-(2-Fluoro-4-methoxyphenyl)-N-[(3S)-2-oxo-5-phenyl-1,3-dihydro-1,4-benzodiazepin-3-yl]pyrazolo[1,5-a]pyrimidine-3-carboxamide] | > 25000 | 1.33 | > 2.33 | 2.72 | 41
13 | CN1C[C@H]2C[C@@H]1CN2c1ccc2nc(-c3ccccc3)c(C(=O)N[C@H]3N=C(c4ccccc4)c4cccc(F)c4NC3=O)n2n1 [Example 81, N-[(3S)-9-fluoro-2-oxo-5-phenyl-1,3-dihydro-1,4-benzodiazepin-3-yl]-6-[(1R,4R)-5-methyl-2,5-diazabicyclo[2.2.1]heptan-2-yl]-2-phenylimidazo[1,2-b]pyridazine-3-carboxamide] | 8150 | 1.88 | 0.488 | 1.49 | 114
14 | O=C(N[C@H]1N=C(c2ccccc2)c2cccc(F)c2NC1=O)c1c(-c2ccccc2Cl)nn2cccnc12 [Example 10, 2-(2-Chlorophenyl)-N-[(3S)-9-fluoro-2-oxo-5-phenyl-1,3-dihydro-1,4-benzodiazepin-3-yl]pyrazolo[1,5-a]pyrimidine-3-carboxamide] | 21100 | 6.33 | > 2.33 | 1.83 | 77
15 | CN1CC(Oc2ccc3nc(-c4ccccc4)c(C(=O)N[C@H]4N=C(c5ccccc5)c5cccc(F)c5NC4=O)n3n2)C1 [Example 109, N-[(3S)-9-Fluoro-2-oxo-5-phenyl-1,3-dihydro-1,4-benzodiazepin-3-yl]-6-(1-methylazetidin-3-yl)oxy-2-phenylimidazo[1,2-b]pyridazine-3-carboxamide] | > 16800 | 4.33 | 1.3 | 1.15 | 96
16 | CN1C[C@@H]2C[C@H]1CN2c1ccc2nc(-c3ccccc3)c(C(=O)N[C@H]3N=C(c4ccccc4)c4cccc(F)c4NC3=O)n2n1 [Example 80, N-[(3S)-9-fluoro-2-oxo-5-phenyl-1,3-dihydro-1,4-benzodiazepin-3-yl]-6-[(1S,4S)-5-methyl-2,5-diazabicyclo[2.2.1]heptan-2-yl]-2-phenylimidazo[1,2-b]pyridazine-3-carboxamide] | 13800 | 2.98 | 2.4 | 1.9 | 51
17 | CC(C)c1ccc(-c2nn3cccnc3c2C(=O)N[C@H]2N=C(c3ccccc3)c3cccc(F)c3NC2=O)cn1 [Example 59, 2-(6-Propan-2-ylpyridin-3-yl)-N-[(3S)-9-fluoro-2-oxo-5-phenyl-1,3-dihydro-1,4-benzodiazepin-3-yl]pyrazolo[1,5-a]pyrimidine-3-carboxamide] | > 25000 | 1.51 | 2.28 | 1 | 60
18 | O=C(N[C@H]1N=C(c2ccccc2)c2ccccc2NC1=O)c1c(-c2ccc(F)cc2F)nn2cccnc12 [Example 4, 2-(2,4-difluorophenyl)-N-[(3S)-2-oxo-5-phenyl-1,3-dihydro-1,4-benzodiazepin-3-yl]pyrazolo[1,5-a]pyrimidine-3-carboxamide] | > 25000 | 3.93 | > 2.33 | > 2.33 | 62
